Test results as given in US4748251A, “7-n-aminomethylenemitomycin derivative” (priority 1985, dated 1988).
≈ marks a conversion by molar mass, not a printed value. Where two headings read alike, the source gives them in different places.

Assays:
[1] = system: Streptococcus faecalis ATCC 10541; test: Antibacterial activity, agar dilution method, pH 7.0 (SF); format: cell-based; conditions: Enterococcus faecalis
Method: (§1) Antibacterial activities of some compounds covered by the present invention against various bacteria are shown by the minimum growth inhibitory concentration (μg/ml) in Table 1. The minimum growth inhibitory concentration was measured at pH 7.0 according to the agar dilution method. In the table, bacteria are indicated by the following letters.
SF: Streptococcus faecalis ATCC 10541

[2] = system: Staphylococcus aureus ATCC 6538P; test: Antibacterial activity, agar dilution method, pH 7.0 (SA); format: cell-based; conditions: ATCC6538P
Method: as §1
SA: Staphylococcus aureus ATCC 6538P

Bacillus subtilis 10707 = test: Antibacterial activity, agar dilution method, pH 7.0 (BS); format: cell-based
Method: as §1
BS: Bacillus subtilis 10707

[3] = system: Proteus vulgalis ATCC 6897; test: Antibacterial activity, agar dilution method, pH 7.0 (PV); format: cell-based
Method: as §1
PV: Proteus vulgalis ATCC 6897

[4] = system: Shigella sonnei ATCC 9290; test: Antibacterial activity, agar dilution method, pH 7.0 (SS); format: cell-based
Method: as §1
SS: Shigella sonnei ATCC 9290

[5] = system: Klebsiella pneumoniae ATCC 10031; test: microbe, parasite or virus in culture; format: cell-based; conditions: ATCC10031, pH 7, read-out: minimum growth inhibitory concentration
Method: The minimum growth inhibitory concentration was measured at pH 7.0 according to the agar dilution method. In the table, bacteria are indicated by the following letters.
KP: Klebsiella pneumoniae ATCC 10031

Sarcoma 180 solid tumor = test: Anti-tumor activity against Sarcoma 180 solid tumor in mice; format: in vivo, mouse (ddY strain); conditions: Mus musculus, Sarcoma-180, ip, 168 h; dose reducing tumor volume to 50% of control; intraperitoneal 24 hours after implantation; tumor measured 7 days after implantation
Source text: (§2) Taking some of the compounds falling within the present invention as examples, anti-tumor activity (ED50) against Sarcoma 180 solid tumor and acute toxicity (LD50) as well as effect on peripheral leucocytes number (WBC4000) are shown in Table 2.
(1) Effect against Sarcoma 180 solid tumor cells:
5×10^6 cells of Sarcoma 180 solid tumor were implanted into ddY mice. 7 days later, ascites cells were sampled. The cells were washed once with a sterilized physiological solution of sodium chloride and were used to prepare a cell supspension containing 5×10^7 cells per ml. On each occasion, 0.1 ml of the cell suspension was subcutaneously implanted into the right axilla of a male mouse (ddY strain; body weight 20±2 g). The test compound was dissolved in a physiological solution of sodium chloride with or without addition of Tween 80 and was administered intraperitoneally into each mouse of a group consisting of 5 mice at a dose of 0.1-0.2 ml, 24 hours after the implantation of the tumor cells.
The anti-tumor activity was determined in the following manner. 7 days after the implantation, the major axis (a) and the minor axis (b) of the tumor were measured to calculate a value of "a×b^2 /2" which corresponds to the volume of the tumor. The anti-tumor activity was expressed by the ratio of the volume of the tumors (T) of the group of animals administered with the test compound to the corresponding volume of tumors (C) of the untreated animals.
(2) Determination of ED50 :
On graph paper, T/C (the ratio of the volume of tumors of treated animals to that of control animals) was indicated by an arithmetic scale on the longitudinal axis and the administered amount of the test compound was indicated by a logarithmic scale on the lateral axis. The relationship between the dose and T/C was shown by a straight line determined by the method of least squares, from which a dose corresponding to T/C of 0.5 was obtained.

Acute toxicity in mice = test: Acute toxicity in mice; parameters: species or system mouse (ddY strain); conditions: mouse, in vivo, ip; intraperitoneally once, ddY mice, 14 days observation, Beherns Kaerber's method
Method: as §2
Each animal of the test group consisting of 5 ddY mice was administered intraperitoneally once with a test compound. […] The LD50 was determined by Beherns Kaerber's method.

peripheral leucocytes = test: Effect on the peripheral leucocytes number in tumor-carrying mice; format: in vivo, mouse (ddY strain); conditions: dose which reduces peripheral leucocytes number to 4000/mm^3; intraperitoneal, blood 4 days later
Source text: as §2
WBC4000 indicates the dose of a substance which reduces the peripheral leucocytes number to 4000/mm^3.
(4) Effect on the peripheral leucocytes number:
Sarcoma 180 solid tumor cells (5×10^6) were subcutaneously implanted into the right axilla of each mouse (body weight 20±2 g) of a group consisting of 5 male mice (ddY strain). 24 hours after implantation,a test compound was intraperitoneally administered to each animal. 4 days later, blood (each 0.02 ml) was collected from the suborbital plexus vein of each tumor-carrying animal. The collected sample of blood was dispersed in 9.98 ml of Cell-Kit Seven solution. One drop of saponin solution was added to the sample to dissolve erythrocytes and then a microcell counter was used to count the number of leucocytes. On graph paper, the number of leucocytes was indicated on the y-axis by an arithmetic scale and the dose of the test compound was indicated on the x-axis by a logarithmic scale. The relationship between the number of peripheral leucocytes and the dosage of the test compound was plotted and the dosage corresponding to 4000 peripheral leucocytes/mm^3 (about half the number of leucocytes of normal mice) was obtained. This value is denoted in Table 2 by WBC4000.

leukemia P-388 = test: Anti-tumor activity against leukemia P-388; format: in vivo, mouse (CDF1); conditions: for ILS %: i.p. once, 33 days
Method: (§3) Ascites was sampled from the abdominal cavity of tumor-bearing mice (DBA/2) 7 days after transplantation of P-388 ascitic tumor. The number of the P-388 cells in the ascites was counted. A suspension of the tumor cells of 5×10^6 /ml was prepared using sterilized physiological saline, and 0.2 ml of the suspension (containing 1×10^6 cells) was intraperitoneally transplanted to CDF1 mice weighing 20 to 25 g. Twenty-four hours after the transplantation of the tumor, a test compound was intraperitoneally administered once to groups of the CDF1 mice, each group consisting of 6 mice. […] The effect of the compound was evaluated by a ratio of a mean survival days of the group treated with the compound to a mean survival days of the control group (untreated group) after 33 days of observation (Increased Life Span, ILS %).

[6] = system: P-388 leukemia resistant to mitomycin C; test: Anti-tumor activity against P-388 leukemia resistant to mitomycin C; format: in vivo, mouse (CDF1); conditions: for ILS %: i.p. once
Method: as §3

tumor [7] = test: Anti-tumor activity of Compound A stated in words (GB 2121796A / inventors' own observation); conditions: noted by the present inventors
tumor [8] = conditions: reported in GB 2121796A; cited from earlier work
[9] = ATCC10541, pH 7, read-out: minimum growth inhibitory concentration
[10] = pH 7, read-out: minimum growth inhibitory concentration
[11] = Bacillus subtilis, 10707, pH 7, read-out: minimum growth inhibitory concentration
[12] = ATCC9290, pH 7, read-out: minimum growth inhibitory concentration

Q: With `CO[C@]12[C@@H]3[C@H](CN1C1=C(C(=O)C(N=CN(C)C)=C(C)C1=O)[C@@H]2COC(N)=O)N3C` (some centres unmarked) [Compound 4a, 7-N-Dimethylaminomethylenemitomycin E] as the compound, how does the MIC [1, 9] read?
A: 0.63 µg/mL (≈ 1.56 µM)

Q: And the MIC [2, 10]?
A: 0.63 µg/mL (≈ 1.56 µM)

Q: And the MIC (Bacillus subtilis 10707; [11])?
A: 0.16 µg/mL (≈ 0.397 µM)

Q: And the MIC [3, 10]?
A: 20 µg/mL (≈ 49.6 µM)

Q: And the MIC [4, 12]?
A: 10 µg/mL (≈ 24.8 µM)

Q: What about the MIC [5] of the same compound?
A: 2.5 µg/mL (≈ 6.2 µM)

Q: For `CO[C@]12[C@@H]3[C@H](CN1C1=C(C(=O)C(N=CN(C)C)=C(C)C1=O)[C@@H]2COC(=O)N=CN(C)C)N3C` (some centres unmarked) [Compound 4b, 7-N,N^10-bis(dimethylaminomethylene)mitomycin E], which MIC [1, 9] is on record?
A: 5 µg/mL (≈ 10.9 µM)

Q: And the MIC [2, 10]?
A: 10 µg/mL (≈ 21.8 µM)

Q: What about the MIC (Bacillus subtilis 10707; [11]) of the same compound?
A: 2.5 µg/mL (≈ 5.45 µM)

Q: And the MIC [5]?
A: 40 µg/mL (≈ 87.2 µM)

Q: Which results are given for `CC1=C(N=CN(C)C)C(=O)C2=C(C1=O)N1C[C@H]3[C@H](N3C)[C@]1(O)[C@@H]2COC(N)=O` (stereo partly drawn) [Compound 6c, 9-Epi-7-N-dimethylaminomethylenemitomycin D]?
A: MIC [1, 9]: 1.3 µg/mL (≈ 3.34 µM); MIC [2, 10]: 2.5 µg/mL (≈ 6.42 µM); MIC (Bacillus subtilis 10707; [11]): 0.63 µg/mL (≈ 1.62 µM); MIC [3, 10]: 5 µg/mL (≈ 12.8 µM); MIC [4, 12]: 40 µg/mL (≈ 103 µM); MIC [5]: 0.63 µg/mL (≈ 1.62 µM); ED50 (Sarcoma 180 solid tumor): 14 mg/kg; LD50 at 336 h (Acute toxicity in mice): 9.4 mg/kg; WEC4000 (peripheral leucocytes): 11.2 mg/kg

Q: Which “maximum increased life span” value (leukemia P-388; P-388, Table 3, maximum over doses) does the source give for `CO[C@@]12[C@H](COC(N)=O)C3=C(C(=O)C(C)=C(N=CN(C)C)C3=O)N1C[C@@H]1N[C@@H]12` [Compound A, 7-N-Dimethylaminomethylenemitomycin C] here?
A: 75%

Q: And the ILS % (leukemia P-388; dose 0.0625 mg/kg)?
A: 15%

Q: What about the ILS % (leukemia P-388; dose 0.125 mg/kg) of the same compound?
A: 48%

Q: What about the ILS % (leukemia P-388; dose 0.25 mg/kg) of the same compound?
A: 45%

Q: And the ILS % (leukemia P-388; dose 0.5 mg/kg)?
A: 63%

Q: What about the ILS % (leukemia P-388; dose 1.0 mg/kg) of the same compound?
A: 68%

Q: And the ILS % (leukemia P-388; dose 2.0 mg/kg)?
A: 75%

Q: And the ILS % (leukemia P-388; dose 4.0 mg/kg)?
A: 20%

Q: What about the “maximum increased life span” value ([6]; P-388 resistant to mitomycin C, Table 4, maximum over doses) of the same compound?
A: 73%

Q: And the ILS % ([6]; dose 0.25 mg/kg)?
A: 47%

Q: What about the ILS % ([6]; dose 0.5 mg/kg) of the same compound?
A: 73%

Q: What about the ILS % ([6]; dose 1.0 mg/kg) of the same compound?
A: 68%

Q: What about the ILS % ([6]; dose 2.0 mg/kg) of the same compound?
A: 47%

Q: And the ILS % ([6]; dose 4.0 mg/kg)?
A: -41%

Q: And the ILS % ([6]; dose 6.0 mg/kg)?
A: -47%

Q: And the anti-tumor activity (tumor [7])?
A: excellent anti-tumor activity

Q: And the anti-tumor activity (tumor [8])?
A: particularly excellent anti-tumor activity

Q: Which results are given for `CO[C@@]12[C@H](COC(N)=O)C3=C(C(=O)C(C)=C(N)C3=O)N1C[C@@H]1N[C@@H]12` [MM-C, mitomycin C, reference compound]?
A: MIC ([1]; ATCC10541, SF, pH 7.0, agar dilution, read-out: minimum growth inhibitory concentration): 0.31 µg/mL (≈ 0.927 µM); MIC ([2]; SA, pH 7.0, agar dilution, read-out: minimum growth inhibitory concentration): 0.16 µg/mL (≈ 0.479 µM); MIC (Bacillus subtilis 10707; Bacillus subtilis, 10707, BS, pH 7.0, agar dilution, read-out: minimum growth inhibitory concentration): 0.04 µg/mL (≈ 0.12 µM); MIC ([3]; PV, pH 7.0, agar dilution, read-out: minimum growth inhibitory concentration): 0.08 µg/mL (≈ 0.239 µM); MIC ([4]; ATCC9290, SS, pH 7.0, agar dilution, read-out: minimum growth inhibitory concentration): 2.5 µg/mL (≈ 7.48 µM)
